Assay results reported in ChEMBL document CHEMBL4665705 (J Med Chem, 2020).
pIC50: −log10 of the molar value. Converted amounts (≈) assume the structure as drawn.

Tests used:
[1] = molecular target: Bromodomain-containing protein 4 (Homo sapiens, UniProt O60885, Y97A)
[2] = molecular target: Bromodomain-containing protein 4 (Homo sapiens, UniProt O60885, Y390A)
[3] = buffer, pH 7.4
physchem = conditions: phosphate buffered saline, pH 7.4
in vitro = conditions: PAMPA, pH 7.4
[4] = Genotoxicity in Salmonella typhimurium TA1535 in absence of S9 fraction by Ames test; type: toxicity; conditions: salmonella enterica subsp. enterica serovar typhimurium
[5] = Genotoxicity in Salmonella typhimurium TA1537 in absence of S9 fraction by Ames test; type: toxicity; conditions: salmonella enterica subsp. enterica serovar typhimurium
[6] = Genotoxicity in Salmonella typhimurium TA98 in absence of S9 fraction by Ames test; type: toxicity; conditions: salmonella enterica subsp. enterica serovar typhimurium
[7] = Genotoxicity in Salmonella typhimurium TA100 in absence of S9 fraction by Ames test; type: toxicity; conditions: salmonella enterica subsp. enterica serovar typhimurium
[8] = Genotoxicity in Escherichia coli WP2uvrA in absence of S9 fraction by Ames test; type: toxicity
[9] = Genotoxicity in Salmonella typhimurium TA1535 in presence of S9 fraction by Ames test; type: toxicity, subcellular; conditions: salmonella enterica subsp. enterica serovar typhimurium
[10] = Genotoxicity in Salmonella typhimurium TA1537 in presence of S9 fraction by Ames test; type: toxicity, subcellular; conditions: salmonella enterica subsp. enterica serovar typhimurium
[11] = Genotoxicity in Salmonella typhimurium TA98 in presence of S9 fraction by Ames test; type: toxicity, subcellular; conditions: salmonella enterica subsp. enterica serovar typhimurium
[12] = Genotoxicity in Salmonella typhimurium TA100 in presence of S9 fraction by Ames test; type: toxicity, subcellular; conditions: salmonella enterica subsp. enterica serovar typhimurium
[13] = Genotoxicity in Escherichia coli WP2uvrA in presence of S9 fraction by Ames test; type: toxicity, subcellular
[14] = Drug metabolism in human liver S9 fraction assessed as deacetylation to aniline at 10 uM incubated for 120 mins by FTMS analysis; type: ADME, subcellular; conditions: s9, 2 h
[15] = Drug metabolism in rat liver S9 fraction assessed as deacetylation to aniline at 10 uM incubated for 120 mins by FTMS analysis; type: ADME, subcellular; conditions: s9, 2 h

SMILES	pIC50 [1]	pIC50 [2]	CHI [3]	solubility kinetic (physchem)	Papp (in vitro)	further results
CC(=O)Nc1ccc(C(=O)NC2CCOCC2)cc1O[C@H](C)c1ccccc1	4.90	< 4.30	3.8	159 µg/mL (≈ 416 µM)	30 ×10⁻⁶ cm/s	
Nc1c(O)cc(C(=O)O)cc1F						Activity [4]: Non-Toxic; Activity [5]: Non-Toxic; Activity [6]: Non-Toxic; Activity [7]: Non-Toxic; Activity [8]: Toxic; Activity [9]: Non-Toxic; Activity [10]: Non-Toxic; Activity [11]: Non-Toxic; Activity [12]: Non-Toxic; Activity [13]: Toxic
CC(=O)Nc1ccc(C(=O)NCCCN)cc1OCc1cccc(Cl)c1			2.1	96 µg/mL (≈ 255 µM)	1.1 ×10⁻⁶ cm/s	
CC(=O)Nc1ccc(C(=O)NCCCN)cc1OCc1ccc(C(N)=O)cc1	5.00	< 4.30	0	151 µg/mL (≈ 393 µM)	< 0.3 ×10⁻⁶ cm/s	
CC(=O)Nc1ccc(C(=O)NCCCO)cc1OCc1ccccc1	5.40	< 4.30	2.4	109 µg/mL (≈ 318 µM)	9.4 ×10⁻⁶ cm/s	
CC(=O)Nc1ccc(C(=O)NCCC2CCOCC2)cc1OCc1ccccc1	5.80	< 4.30	4	200 µg/mL (≈ 504 µM)	10.4 ×10⁻⁶ cm/s	
CC(=O)Nc1ccc(C(=O)N[C@H]2CC[C@H](O)CC2)cc1OCc1ccccc1	5.90	< 4.30	2.7	174 µg/mL (≈ 455 µM)	7.9 ×10⁻⁶ cm/s	
CC(=O)Nc1ccc(C(=O)NC2CCOCC2)cc1OCc1ccccc1	5.70	< 4.30	3.3	155 µg/mL (≈ 421 µM)	19 ×10⁻⁶ cm/s	
CC(=O)Nc1ccc(C(=O)NCC2CCNCC2)cc1OCc1ccccc1	6.10	< 4.30	1.7	< 3 µg/mL	17 ×10⁻⁶ cm/s	
CC(=O)Nc1ccc(C(=O)NCCCN)cc1OCc1cccnc1	4.80	< 4.30	0.2	130 µg/mL (≈ 380 µM)	< 0.3 ×10⁻⁶ cm/s	
CC(=O)Nc1ccc(C(=O)NCCCN)cc1OCc1ccc(Cl)cc1	5.70	4.60	2.2	108 µg/mL (≈ 287 µM)	< 0.3 ×10⁻⁶ cm/s	
CC(=O)Nc1ccc(C(=O)NCCCN)cc1OCc1ccccc1Cl	5.60	4.40	1.9	124 µg/mL (≈ 330 µM)	1.5 ×10⁻⁶ cm/s	
CC(=O)Nc1ccc(C(=O)NCCO)cc1OCc1ccccc1	5.30	< 4.30	2.3	162 µg/mL (≈ 493 µM)	6.8 ×10⁻⁶ cm/s	
CCNC(=O)c1cc(OCc2ccccc2)c(NC(C)=O)cc1F	5.80	< 4.30	4.4	159 µg/mL (≈ 481 µM)	67 ×10⁻⁶ cm/s	
COc1ccc(COc2cc(C(=O)NCCCN)ccc2NC(C)=O)cc1	5.60	4.40	1.3	114 µg/mL (≈ 307 µM)	< 0.3 ×10⁻⁶ cm/s	
CC(=O)Nc1ccc(C(=O)NCCCN)cc1OCc1ccc(C(C)C)cc1			3.1	114 µg/mL (≈ 297 µM)	0.77 ×10⁻⁶ cm/s	

SMILES	pIC50 [1]	pIC50 [2]	CHI [3]	solubility kinetic (physchem)	Papp (in vitro)	further results
CC(=O)Nc1ccc(C(=O)NCCCN)cc1OCc1ccccc1	5.80	4.50	1.6	123 µg/mL (≈ 360 µM)	< 0.3 ×10⁻⁶ cm/s	
CC(=O)Nc1ccc(C(=O)N[C@H]2CC[C@H](O)CC2)cc1O[C@@H](C)c1ccccc1	6.80	4.40	3.1	170 µg/mL (≈ 429 µM)	9.3 ×10⁻⁶ cm/s	
CCNC(=O)c1ccc(NC(C)=O)c(OCc2ccccc2)c1	5.20	< 4.30	3.5	143 µg/mL (≈ 458 µM)	32 ×10⁻⁶ cm/s	
C[C@H](Oc1cc(C(=O)N[C@H]2CC[C@H](O)CC2)ccc1N)c1ccccc1						Activity [4]: Non-Toxic; Activity [5]: Non-Toxic; Activity [6]: Non-Toxic; Activity [7]: Non-Toxic; Activity [8]: Non-Toxic; Activity [9]: Non-Toxic; Activity [10]: Non-Toxic; Activity [11]: Non-Toxic; Activity [12]: Non-Toxic; Activity [13]: Non-Toxic
CC(=O)Nc1ccc(C(=O)NCCCN)cc1OCc1ccncc1			0.1	112 µg/mL (≈ 327 µM)	0.3 ×10⁻⁶ cm/s	
CC(=O)Nc1ccccc1OCc1ccccc1			4.9	113 µg/mL (≈ 468 µM)	78 ×10⁻⁶ cm/s	
CC(=O)Nc1ccc(C(=O)NCCCN)cc1OCC1CCOCC1	< 4.30	< 4.30	0.4	144 µg/mL (≈ 412 µM)	< 0.3 ×10⁻⁶ cm/s	
CC(=O)Nc1ccc(C(=O)NCCCN)cc1OCc1ccccn1	5.00	< 4.30	0.3	80 µg/mL (≈ 234 µM)	< 0.3 ×10⁻⁶ cm/s	
CCNC(=O)c1cc(F)c(NC(C)=O)c(OCc2ccccc2)c1	6.00	< 4.30	3.1	18 µg/mL (≈ 54.5 µM)	11 ×10⁻⁶ cm/s	
CC(=O)Nc1ccc(C(=O)NCC2CCOCC2)cc1OCc1ccccc1	5.60	< 4.30	3.5	174 µg/mL (≈ 455 µM)	19 ×10⁻⁶ cm/s	
CC(=O)Nc1ccc(C(=O)NCCc2cnc[nH]2)cc1OCc1ccccc1			2.2	125 µg/mL (≈ 330 µM)	0.8 ×10⁻⁶ cm/s	
CCNC(=O)c1ccc(NC(C)=O)c(OCc2ccccc2)c1F	4.70	< 4.30	2.5	119 µg/mL (≈ 360 µM)	46 ×10⁻⁶ cm/s	
CC(=O)Nc1ccc(C(=O)NC2CCOCC2)cc1O[C@@H](C)c1ccccc1	6.60	4.50	3.7	215 µg/mL (≈ 562 µM)	34 ×10⁻⁶ cm/s	Drug metabolism [14]: Metabolite_Detected; Drug metabolism [15]: Metabolite_Detected
CC(=O)Nc1ccc(C(=O)NCCCN)cc1OCc1ccc(C)cc1	5.70	4.50	2	114 µg/mL (≈ 321 µM)	0.65 ×10⁻⁶ cm/s	
CC(=O)Nc1ccc(C(=O)NCCCN)cc1OC(C)c1ccccc1 (racemic)	6.30	4.70	1.7	159 µg/mL (≈ 447 µM)	< 0.3 ×10⁻⁶ cm/s	
